In one test the test system is human MAPCs. As to conditions: about 10 ng/mL LIF; cited from earlier work.
The next test relates to murine MAPCs. As to conditions: about 10 ng/mL LIF added to PDGF-BB and EGF culture; cited from earlier work.
For a further test, the system named is rat MAPCs. In words: Cytokine mediated differentiation of rat MAPCs, Q-RT-PCR and cell survival. It counts as cell-based. Particulars: activin-A, BMP4 and cyclopamine or anti-SHH Ab withdrawn after d6, cells then maintained with the factor.

Experimental for rat MAPCs: For Q-RT-PCR reactions described herein, the primer sequences are presented in Tables 3-5 and the following protocols were used: RNA was extracted from the cells with the aid of the RNeasy Mini Kit (Qiagen; Valencia Calif.), followed by a DNase Treatment with DNA-Free™ (Ambion, Austin, Tex.). The RNA was reverse transcribed with TaqMan (Applied Biosystems, Foster City, Calif.; Step 1 (Incubation): 25° C., 10 min; Step 2 (RT): 48° C., 30 min; Step 3 (RT Inactivation): 95° C., 10 min).
Following reverse transcription, Quantitative Real Time PCR (Q-RT-PCR) was performed as follows: Step 1: 50° C., 2 min (Incubation); Step 2: 95° C., 10 min (Taq activation); Step 3: 95° C., 15 sec (Denaturation) followed by 60° C., 1 min (Extension) and repeat for 40 cycles; Step 4: 95° C., 15 sec (Dissociation); Step 5: 60° C., 20 sec (Melting curve); Step 6: 95° C., 15 sec.
In an initial series of studies, the effect of cell density (about 10^4-10^5 cells/cm^2), ECM component (fibronectin, collagen, matrigel) and different concentrations (10-100 ng/mL) of bFGF (10-100 ng/mL), FGF2 (10-100 ng/mL), Activin A (e.g., about 10 ng/mL to about 100 ng/mL), BMP4 (e.g., about 10 ng/mL to about 50 ng/mL), retinoic acid (about 10^−6M), EGF (e.g., about 10 to about 100 ng/mL), FGF10 (e.g., about 50 to about 150 ng/mL, including about 100 ng/mL), HGF (e.g., about 10 to about 100 ng/mL), GDF11 (e.g., about 50 to abut 150 ng/mL), cyclopamine (e.g., about 10 μM), anti-SHH antibody (Ab; e.g., about 10 μg/mL), nicotinamide (e.g., 5 μM to about 50 μM, including about 10 μM), exendin 4 (about 5 nM to about 50 nM, including about 10 nM), betacellulin (e.g., about 50 to abut 150 ng/mL) alone or in combinations of 2 or 3 and in different temporal sequences, on the induction of transcription factors, insulin, glucagon and somatostatin expression levels after 6, 12 and 18 days using Q-RT-PCR was determined.
Subsequent addition of factors believed to play a role in further proliferation and differentiation from pancreas-committed cells to mature endocrine pancreas, including EGF (e.g., about 50 ng/mL), HGF (e.g., about 50 ng/mL) and FGF10 (e.g., about 100 ng/mL), either alone or in combination was tested. […] Further optimization was obtained by adjusting the duration of the different steps along the differentiation course, as well addition of β-cellulin (50 ng/mL).

In the case of “LIF: leukemia inhibitory factor, culture supplement”, the “short-term cell growth (cell doubling time till 25 cell doublings, Oct 4 expression)” value with human MAPCs was “did not affect short-term cell growth”. For the same substance, the cell growth entry in the test with murine MAPCs is “significantly enhanced cell growth”.
As for “HGF: mitogenic protein used at about 50 ng/mL”, the cell survival entry in the test on rat MAPCs was “significantly better”.
For EGF: epidermal growth factor, the cell survival entry with rat MAPCs is recorded as “significantly better”.

The values above are taken from US8409859B2, “Differentiation of non-embryonic stem cells to cells having a pancreatic phenotype” (Regents of the University of Minnesota, priority 2005, dated 2013).
